According to PMC10964739 (Toxicological Sciences, 2024):

Legend:
[1] = biological target: TOP2B (topoisomerase IIβ) (Homo sapiens, UniProt Q02880); experiment: kDNA decatenation assay with recombinant enzyme; format: biochemical
[2] = biological target: TOP2A (topoisomerase IIα) (Homo sapiens, UniProt P11388); experiment: kDNA decatenation assay with recombinant enzyme; format: biochemical
TOP2A (topoisomerase IIα), sequence (P11388 whole entry): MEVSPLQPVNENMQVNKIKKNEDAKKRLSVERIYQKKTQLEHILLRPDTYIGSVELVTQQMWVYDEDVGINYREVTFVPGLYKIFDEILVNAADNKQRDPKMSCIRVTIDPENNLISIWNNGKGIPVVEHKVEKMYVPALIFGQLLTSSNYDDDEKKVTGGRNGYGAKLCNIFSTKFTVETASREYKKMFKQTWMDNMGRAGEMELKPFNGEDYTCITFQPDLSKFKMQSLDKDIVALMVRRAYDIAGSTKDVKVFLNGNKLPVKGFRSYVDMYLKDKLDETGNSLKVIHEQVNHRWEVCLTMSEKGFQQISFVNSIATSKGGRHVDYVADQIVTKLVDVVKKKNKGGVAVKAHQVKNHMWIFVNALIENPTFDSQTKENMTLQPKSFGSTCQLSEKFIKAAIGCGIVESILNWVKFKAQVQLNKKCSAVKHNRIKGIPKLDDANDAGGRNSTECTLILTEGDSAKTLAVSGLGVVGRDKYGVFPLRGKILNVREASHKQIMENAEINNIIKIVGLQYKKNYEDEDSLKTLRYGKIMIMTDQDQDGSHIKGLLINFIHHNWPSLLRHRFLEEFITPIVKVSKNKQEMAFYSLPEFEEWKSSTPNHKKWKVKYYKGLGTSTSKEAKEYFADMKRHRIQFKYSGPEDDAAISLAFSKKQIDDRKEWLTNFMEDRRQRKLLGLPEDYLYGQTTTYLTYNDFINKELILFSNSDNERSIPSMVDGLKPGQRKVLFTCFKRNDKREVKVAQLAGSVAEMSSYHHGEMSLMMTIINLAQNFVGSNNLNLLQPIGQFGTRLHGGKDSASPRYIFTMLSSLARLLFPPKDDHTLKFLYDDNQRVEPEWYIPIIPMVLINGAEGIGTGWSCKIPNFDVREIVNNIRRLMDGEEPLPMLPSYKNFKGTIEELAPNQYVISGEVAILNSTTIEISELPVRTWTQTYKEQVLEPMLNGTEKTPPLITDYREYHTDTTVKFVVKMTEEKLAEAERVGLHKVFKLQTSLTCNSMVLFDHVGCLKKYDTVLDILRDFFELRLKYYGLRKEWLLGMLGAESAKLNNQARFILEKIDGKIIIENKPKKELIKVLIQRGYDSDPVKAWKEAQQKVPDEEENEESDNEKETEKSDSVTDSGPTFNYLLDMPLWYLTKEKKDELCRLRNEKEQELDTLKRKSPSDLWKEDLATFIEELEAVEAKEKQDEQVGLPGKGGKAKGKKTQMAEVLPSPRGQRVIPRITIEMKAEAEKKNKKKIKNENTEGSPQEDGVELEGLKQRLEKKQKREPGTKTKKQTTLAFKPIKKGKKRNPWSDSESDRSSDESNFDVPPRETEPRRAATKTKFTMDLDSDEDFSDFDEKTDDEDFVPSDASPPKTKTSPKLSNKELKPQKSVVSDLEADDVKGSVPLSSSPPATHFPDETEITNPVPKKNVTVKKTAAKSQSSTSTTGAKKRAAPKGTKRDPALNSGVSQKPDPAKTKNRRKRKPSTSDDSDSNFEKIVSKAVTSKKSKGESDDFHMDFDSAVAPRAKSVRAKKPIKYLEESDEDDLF

TOP2B (topoisomerase IIβ), sequence (Q02880 2-1626): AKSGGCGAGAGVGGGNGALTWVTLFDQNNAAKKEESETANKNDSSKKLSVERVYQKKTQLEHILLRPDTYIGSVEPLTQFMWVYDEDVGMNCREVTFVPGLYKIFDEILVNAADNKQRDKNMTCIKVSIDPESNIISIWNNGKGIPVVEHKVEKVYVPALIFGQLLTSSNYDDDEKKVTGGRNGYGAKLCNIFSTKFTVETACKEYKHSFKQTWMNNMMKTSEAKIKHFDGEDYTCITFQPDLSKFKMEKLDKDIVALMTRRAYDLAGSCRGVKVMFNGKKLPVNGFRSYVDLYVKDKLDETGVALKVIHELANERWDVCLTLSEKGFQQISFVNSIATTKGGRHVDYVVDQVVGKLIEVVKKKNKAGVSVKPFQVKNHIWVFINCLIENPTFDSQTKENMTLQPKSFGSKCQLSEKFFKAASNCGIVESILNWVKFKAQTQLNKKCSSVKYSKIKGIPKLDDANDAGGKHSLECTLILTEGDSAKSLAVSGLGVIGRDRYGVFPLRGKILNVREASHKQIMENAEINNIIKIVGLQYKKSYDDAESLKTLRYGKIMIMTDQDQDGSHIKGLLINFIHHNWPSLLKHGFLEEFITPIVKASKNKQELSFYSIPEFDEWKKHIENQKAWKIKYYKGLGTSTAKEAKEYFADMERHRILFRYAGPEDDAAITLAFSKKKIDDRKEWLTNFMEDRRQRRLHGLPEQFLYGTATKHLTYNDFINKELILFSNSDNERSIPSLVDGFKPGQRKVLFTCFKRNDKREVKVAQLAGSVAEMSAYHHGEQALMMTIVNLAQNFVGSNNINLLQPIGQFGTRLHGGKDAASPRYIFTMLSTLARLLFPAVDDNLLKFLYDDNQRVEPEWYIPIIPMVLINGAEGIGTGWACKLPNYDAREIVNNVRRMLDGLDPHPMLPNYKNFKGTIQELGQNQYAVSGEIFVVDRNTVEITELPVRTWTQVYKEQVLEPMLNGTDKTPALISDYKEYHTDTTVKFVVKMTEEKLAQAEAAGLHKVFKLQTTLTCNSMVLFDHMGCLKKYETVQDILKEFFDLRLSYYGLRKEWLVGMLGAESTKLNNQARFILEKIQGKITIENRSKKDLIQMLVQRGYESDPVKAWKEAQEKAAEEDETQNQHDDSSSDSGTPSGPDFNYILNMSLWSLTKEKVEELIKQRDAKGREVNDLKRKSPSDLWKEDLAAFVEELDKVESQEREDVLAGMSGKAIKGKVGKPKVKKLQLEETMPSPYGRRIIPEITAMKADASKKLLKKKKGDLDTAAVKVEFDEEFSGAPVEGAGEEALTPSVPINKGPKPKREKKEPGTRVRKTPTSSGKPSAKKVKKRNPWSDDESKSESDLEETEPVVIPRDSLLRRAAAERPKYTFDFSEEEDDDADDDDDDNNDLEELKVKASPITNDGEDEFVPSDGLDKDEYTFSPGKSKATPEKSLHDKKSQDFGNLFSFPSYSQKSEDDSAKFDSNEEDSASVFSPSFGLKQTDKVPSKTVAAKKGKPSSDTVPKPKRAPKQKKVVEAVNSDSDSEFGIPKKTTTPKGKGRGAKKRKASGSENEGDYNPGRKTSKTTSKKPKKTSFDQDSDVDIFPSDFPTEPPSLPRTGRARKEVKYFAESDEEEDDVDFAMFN

Question: C[C@@H](CN1CC(=O)NC(=O)C1)N1CC(=O)NC(=O)C1 [DEX, dexrazoxane] was tested. Which IC50 [1] did it give?
Answer: ~60 µM

Question: And the IC50 [2]?
Answer: ~60 µM

Question: CC(Oc1ccc(Oc2cnc3ccc(Cl)cc3n2)cc1)C(=O)O (racemic) [XK469, 2(R)-[4-(7-chloro-2-quinoxalinyl)oxyphenoxy]propionic acid] was tested. Which IC50 [1] did it give?
Answer: ~130 µM

Question: What about the IC50 [2] of the same compound?
Answer: ~130 µM
